Results published in PubChem BioAssay (NCI).
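The concentration for 50% growth inhibition is given as GI50. TGI marks complete inhibition of growth.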

Tests used:
Assay in all cases: growth of human tumour cells (NCI), 384-well format
SK-MEL-28 melanoma = tested on: SK-MEL-28 melanoma
SNB-19 CNS = tested on: SNB-19 CNS
HCT-116 colon = tested on: HCT-116 colon
SK-MEL-5 melanoma = tested on: SK-MEL-5 melanoma
M14 melanoma = tested on: M14 melanoma
HS 578T breast = tested on: HS 578T breast
SNB-75 CNS = tested on: SNB-75 CNS
A498 renal = tested on: A498 renal
HL-60(TB) leukemia = tested on: HL-60(TB) leukemia
K-562 leukemia = tested on: K-562 leukemia
T-47D breast = tested on: T-47D breast
TK-10 renal = tested on: TK-10 renal
IGROV1 ovarian = tested on: IGROV1 ovarian
CAKI-1 renal = tested on: CAKI-1 renal
EKVX NSCLC = tested on: EKVX NSCLC
786-0 renal = tested on: 786-0 renal
OVCAR-8 ovarian = tested on: OVCAR-8 ovarian
MCF7 breast = tested on: MCF7 breast
OVCAR-4 ovarian = tested on: OVCAR-4 ovarian
BT-549 breast = tested on: BT-549 breast
KM12 colon = tested on: KM12 colon
LOX IMVI melanoma = tested on: LOX IMVI melanoma
A549 NSCLC = tested on: A549 NSCLC
U251 glioblastoma = tested on: U251 glioblastoma
ACHN renal = tested on: ACHN renal
COLO 205 colon = tested on: COLO 205 colon
HCC-2998 colon = tested on: HCC-2998 colon
RXF 393 renal = tested on: RXF 393 renal
MDA-MB-468 breast = tested on: MDA-MB-468 breast
SR leukemia = tested on: SR leukemia

**Q.** How did the TGI (SK-MEL-28 melanoma) turn out when CCC[C@H](Nc1nc(-c2ccc(NC(=O)NCC)c(OC)c2)ncc1C)c1cccnc1 was run?
**A.** The TGI was 16200 nM.

**Q.** And the GI50 (SNB-19 CNS)?
**A.** Its GI50 is 35.3 nM.

**Q.** What about the TGI (SNB-19 CNS) of the same molecule?
**A.** The TGI was 10300 nM.

**Q.** What about the GI50 (HCT-116 colon) of the same molecule?
**A.** Its GI50 is 26.3 nM.

**Q.** And the TGI (HCT-116 colon)?
**A.** The TGI was 74.5 nM.

**Q.** And the GI50 (SK-MEL-5 melanoma)?
**A.** The GI50 was 17.5 nM.

**Q.** What about the TGI (SK-MEL-5 melanoma) of the same molecule?
**A.** Its TGI is 36.5 nM.

**Q.** And the GI50 (M14 melanoma)?
**A.** Its GI50 is 21.8 nM.

**Q.** What about the TGI (M14 melanoma) of the same molecule?
**A.** Its TGI is 63.6 nM.

**Q.** What about the GI50 (HS 578T breast) of the same molecule?
**A.** The GI50 was 18.7 nM.

**Q.** And the TGI (HS 578T breast)?
**A.** Its TGI is 37.3 nM.

**Q.** What about the GI50 (SNB-75 CNS) of the same molecule?
**A.** Its GI50 is 33.4 nM.

**Q.** What about the TGI (SNB-75 CNS) of the same molecule?
**A.** The TGI was 11300 nM.

**Q.** And the GI50 (A498 renal)?
**A.** Its GI50 is 32.1 nM.

**Q.** And the TGI (A498 renal)?
**A.** The TGI was 479 nM.

**Q.** What about the GI50 (HL-60(TB) leukemia) of the same molecule?
**A.** The GI50 was 16.5 nM.

**Q.** And the TGI (HL-60(TB) leukemia)?
**A.** Its TGI is 30.4 nM.

**Q.** And the GI50 (K-562 leukemia)?
**A.** The GI50 was 20.3 nM.

**Q.** What about the TGI (K-562 leukemia) of the same molecule?
**A.** Its TGI is 39.6 nM.

**Q.** And the GI50 (T-47D breast)?
**A.** Its GI50 is 71.9 nM.

**Q.** What about the TGI (T-47D breast) of the same molecule?
**A.** The TGI was 14400 nM.

**Q.** And the GI50 (TK-10 renal)?
**A.** Its GI50 is 47.3 nM.

**Q.** And the TGI (TK-10 renal)?
**A.** The TGI was 16700 nM.

**Q.** What about the GI50 (IGROV1 ovarian) of the same molecule?
**A.** Its GI50 is 40.4 nM.

**Q.** And the TGI (IGROV1 ovarian)?
**A.** The TGI was 12400 nM.

**Q.** What about the GI50 (CAKI-1 renal) of the same molecule?
**A.** Its GI50 is 30 nM.

**Q.** What about the TGI (CAKI-1 renal) of the same molecule?
**A.** The TGI was 14800 nM.

**Q.** And the GI50 (EKVX NSCLC)?
**A.** The GI50 was 43 nM.

**Q.** And the TGI (EKVX NSCLC)?
**A.** The TGI was 13300 nM.

**Q.** And the GI50 ([…]-0 renal)?
**A.** The GI50 was 31.7 nM.

**Q.** And the TGI (786-0 renal)?
**A.** Its TGI is 97.5 nM.

**Q.** And the GI50 (OVCAR-8 ovarian)?
**A.** Its GI50 is 21.1 nM.

**Q.** And the TGI (OVCAR-8 ovarian)?
**A.** The TGI was 49.2 nM.

**Q.** What about the GI50 (MCF7 breast) of the same molecule?
**A.** The GI50 was 29.6 nM.

**Q.** What about the TGI (MCF7 breast) of the same molecule?
**A.** The TGI was 1360 nM.

**Q.** And the GI50 (OVCAR-4 ovarian)?
**A.** The GI50 was 48.6 nM.

**Q.** What about the TGI (OVCAR-4 ovarian) of the same molecule?
**A.** Its TGI is 8480 nM.

**Q.** And the GI50 (BT-549 breast)?
**A.** The GI50 was 22.7 nM.

**Q.** And the TGI (BT-549 breast)?
**A.** Its TGI is 59 nM.

**Q.** And the GI50 (KM12 colon)?
**A.** The GI50 was 26.4 nM.

**Q.** What about the TGI (KM12 colon) of the same molecule?
**A.** The TGI was 1180 nM.

**Q.** And the GI50 (LOX IMVI melanoma)?
**A.** The GI50 was 25.6 nM.

**Q.** What about the TGI (LOX IMVI melanoma) of the same molecule?
**A.** Its TGI is 67 nM.

**Q.** And the GI50 (A549 NSCLC)?
**A.** Its GI50 is 43.4 nM.

**Q.** What about the TGI (A549 NSCLC) of the same molecule?
**A.** The TGI was 17400 nM.

**Q.** And the GI50 (U251 glioblastoma)?
**A.** Its GI50 is 25 nM.

**Q.** What about the TGI (U251 glioblastoma) of the same molecule?
**A.** The TGI was 64.6 nM.

**Q.** And the GI50 (ACHN renal)?
**A.** Its GI50 is 55 nM.

**Q.** And the TGI (ACHN renal)?
**A.** The TGI was 15600 nM.

**Q.** And the GI50 (COLO 205 colon)?
**A.** The GI50 was 19.3 nM.

**Q.** What about the TGI (COLO 205 colon) of the same molecule?
**A.** The TGI was 41.7 nM.

**Q.** What about the GI50 (HCC-2998 colon) of the same molecule?
**A.** The GI50 was 22.9 nM.

**Q.** What about the TGI (HCC-2998 colon) of the same molecule?
**A.** The TGI was 63 nM.

**Q.** And the GI50 (RXF 393 renal)?
**A.** The GI50 was 16.4 nM.

**Q.** And the TGI (RXF 393 renal)?
**A.** The TGI was 40.6 nM.

**Q.** What about the GI50 (MDA-MB-468 breast) of the same molecule?
**A.** Its GI50 is 16.8 nM.

**Q.** And the TGI (MDA-MB-468 breast)?
**A.** The TGI was 33.4 nM.

**Q.** What about the TGI (SR leukemia) of the same molecule?
**A.** The TGI was 16.1 nM.
